# In paper PMC10882719 (Frontiers in Neuroscience, 2024):
# Read-outs that look alike come from different tables or passages of the source.
# Columns and labels:
# Format in all cases: cell-based
# [1] = molecular target: T1, 168 GPCRs (Homo sapiens, UniProt P07550)
# T1 construct: host or cells: PathHunter cell lines
# [2] = molecular target: T2, 168 GPCRs (Homo sapiens, UniProt P14416); settings: DRD2L
# T2 construct: host or cells: PathHunter cell lines
# [3] = molecular target: T3, 168 GPCRs (Homo sapiens, UniProt P28566); settings: HTR1E
# T3 construct: host or cells: PathHunter cell lines
# T3 sequence (P28566 whole entry): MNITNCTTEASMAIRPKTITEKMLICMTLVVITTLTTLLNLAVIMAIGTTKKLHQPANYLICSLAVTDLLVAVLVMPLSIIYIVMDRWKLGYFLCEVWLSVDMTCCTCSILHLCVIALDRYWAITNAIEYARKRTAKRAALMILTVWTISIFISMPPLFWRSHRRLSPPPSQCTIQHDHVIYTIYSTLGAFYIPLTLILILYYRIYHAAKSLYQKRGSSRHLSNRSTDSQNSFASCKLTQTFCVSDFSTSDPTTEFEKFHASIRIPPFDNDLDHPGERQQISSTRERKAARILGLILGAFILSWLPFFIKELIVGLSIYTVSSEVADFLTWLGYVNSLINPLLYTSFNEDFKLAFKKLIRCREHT
# [4] = molecular target: T4, 168 GPCRs (Homo sapiens, UniProt P30988)
# T4 construct: host or cells: PathHunter cell lines
# T4 sequence (P30988 25-474): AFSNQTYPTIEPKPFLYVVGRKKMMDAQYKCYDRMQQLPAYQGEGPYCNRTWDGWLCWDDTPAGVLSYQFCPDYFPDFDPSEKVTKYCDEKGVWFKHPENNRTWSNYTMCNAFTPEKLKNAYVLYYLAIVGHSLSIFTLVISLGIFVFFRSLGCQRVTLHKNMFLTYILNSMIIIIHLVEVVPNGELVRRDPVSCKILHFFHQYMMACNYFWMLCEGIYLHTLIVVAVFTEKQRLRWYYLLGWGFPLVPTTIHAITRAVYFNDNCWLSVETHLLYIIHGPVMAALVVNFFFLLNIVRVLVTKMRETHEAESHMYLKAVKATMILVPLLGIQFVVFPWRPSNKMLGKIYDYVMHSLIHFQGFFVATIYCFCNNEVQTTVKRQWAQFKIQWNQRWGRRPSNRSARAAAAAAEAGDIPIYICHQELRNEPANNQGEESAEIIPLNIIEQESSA
# [5] = molecular target: T5, 168 GPCRs (Homo sapiens, UniProt P30989); settings: NTSR1
# T5 construct: host or cells: PathHunter cell lines
# T5 sequence (P30989 whole entry): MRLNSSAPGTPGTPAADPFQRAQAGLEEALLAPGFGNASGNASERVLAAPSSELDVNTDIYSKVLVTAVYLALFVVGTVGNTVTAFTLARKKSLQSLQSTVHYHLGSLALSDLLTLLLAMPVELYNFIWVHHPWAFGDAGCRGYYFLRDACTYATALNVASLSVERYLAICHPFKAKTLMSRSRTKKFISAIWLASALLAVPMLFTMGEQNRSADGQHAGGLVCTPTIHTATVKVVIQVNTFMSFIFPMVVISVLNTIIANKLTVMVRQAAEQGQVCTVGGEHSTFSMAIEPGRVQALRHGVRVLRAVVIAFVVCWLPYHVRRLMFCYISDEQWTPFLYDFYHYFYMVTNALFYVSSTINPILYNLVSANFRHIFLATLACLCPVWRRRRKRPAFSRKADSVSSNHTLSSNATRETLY
# [6] = molecular target: T6, 168 GPCRs (Homo sapiens, UniProt P32245); settings: MC4R
# T6 construct: host or cells: PathHunter cell lines
# T6 sequence (P32245 whole entry): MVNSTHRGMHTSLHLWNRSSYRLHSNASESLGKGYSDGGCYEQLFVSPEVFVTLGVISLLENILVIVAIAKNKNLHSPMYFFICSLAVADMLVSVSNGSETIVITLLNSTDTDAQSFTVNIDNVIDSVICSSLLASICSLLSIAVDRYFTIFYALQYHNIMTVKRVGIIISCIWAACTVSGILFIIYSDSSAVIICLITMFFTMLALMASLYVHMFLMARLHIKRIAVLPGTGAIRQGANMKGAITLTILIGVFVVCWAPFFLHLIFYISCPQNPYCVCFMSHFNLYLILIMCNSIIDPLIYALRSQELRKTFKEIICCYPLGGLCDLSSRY
# [7] = molecular target: T7, 168 GPCRs (Homo sapiens, UniProt Q9H1C0)
# T7 construct: host or cells: PathHunter cell lines
# T7 sequence (Q9H1C0 whole entry): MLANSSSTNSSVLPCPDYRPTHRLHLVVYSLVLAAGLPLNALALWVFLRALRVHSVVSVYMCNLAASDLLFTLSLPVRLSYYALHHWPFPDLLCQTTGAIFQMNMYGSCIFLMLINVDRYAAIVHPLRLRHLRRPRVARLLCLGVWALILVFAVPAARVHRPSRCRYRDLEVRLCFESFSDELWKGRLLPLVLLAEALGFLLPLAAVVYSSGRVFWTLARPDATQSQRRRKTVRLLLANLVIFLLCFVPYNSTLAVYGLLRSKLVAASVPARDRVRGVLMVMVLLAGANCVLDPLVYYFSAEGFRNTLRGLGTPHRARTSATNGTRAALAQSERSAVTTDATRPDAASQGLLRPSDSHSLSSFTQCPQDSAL
# [8] = molecular target: T8, 168 GPCRs (Homo sapiens, UniProt Q9UBY5)
# T8 construct: host or cells: PathHunter cell lines
# T8 sequence (Q9UBY5 1-353): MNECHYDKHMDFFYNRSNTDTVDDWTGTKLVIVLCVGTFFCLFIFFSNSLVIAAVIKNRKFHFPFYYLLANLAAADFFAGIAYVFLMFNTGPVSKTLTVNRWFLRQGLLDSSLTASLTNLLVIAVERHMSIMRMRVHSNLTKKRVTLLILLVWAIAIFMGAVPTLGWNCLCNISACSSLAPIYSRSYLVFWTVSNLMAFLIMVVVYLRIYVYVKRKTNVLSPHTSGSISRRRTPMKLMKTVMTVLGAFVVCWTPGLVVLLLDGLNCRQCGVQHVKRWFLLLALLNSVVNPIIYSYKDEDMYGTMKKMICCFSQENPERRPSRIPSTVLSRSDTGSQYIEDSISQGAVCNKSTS
# [9] = molecular target: T9, 168 GPCRs (Homo sapiens, UniProt Q9Y5Y4)
# T9 construct: host or cells: PathHunter cell lines
# T9 sequence (Q9Y5Y4 1-395): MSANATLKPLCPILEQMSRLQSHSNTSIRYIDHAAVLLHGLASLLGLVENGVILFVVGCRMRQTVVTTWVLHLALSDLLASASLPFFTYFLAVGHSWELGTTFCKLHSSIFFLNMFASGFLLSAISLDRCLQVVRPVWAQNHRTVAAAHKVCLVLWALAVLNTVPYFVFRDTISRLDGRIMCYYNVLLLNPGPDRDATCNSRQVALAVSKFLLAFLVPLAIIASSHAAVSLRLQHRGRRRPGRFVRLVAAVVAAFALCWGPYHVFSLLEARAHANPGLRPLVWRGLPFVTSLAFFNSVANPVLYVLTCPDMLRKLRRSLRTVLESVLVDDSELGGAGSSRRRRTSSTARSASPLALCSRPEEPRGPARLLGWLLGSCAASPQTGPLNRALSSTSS
# T1 sequence (P07550 whole entry): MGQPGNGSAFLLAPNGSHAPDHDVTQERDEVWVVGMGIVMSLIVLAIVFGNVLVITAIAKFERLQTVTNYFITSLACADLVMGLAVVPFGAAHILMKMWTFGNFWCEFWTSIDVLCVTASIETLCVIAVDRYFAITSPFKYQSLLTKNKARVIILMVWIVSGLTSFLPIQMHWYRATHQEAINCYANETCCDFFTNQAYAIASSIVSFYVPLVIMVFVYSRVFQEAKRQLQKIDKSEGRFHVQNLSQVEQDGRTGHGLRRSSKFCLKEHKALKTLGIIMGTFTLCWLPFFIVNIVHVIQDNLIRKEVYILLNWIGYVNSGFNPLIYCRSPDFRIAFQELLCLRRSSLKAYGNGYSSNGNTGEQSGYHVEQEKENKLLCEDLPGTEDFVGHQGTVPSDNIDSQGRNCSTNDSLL
# T2 sequence (P14416 whole entry): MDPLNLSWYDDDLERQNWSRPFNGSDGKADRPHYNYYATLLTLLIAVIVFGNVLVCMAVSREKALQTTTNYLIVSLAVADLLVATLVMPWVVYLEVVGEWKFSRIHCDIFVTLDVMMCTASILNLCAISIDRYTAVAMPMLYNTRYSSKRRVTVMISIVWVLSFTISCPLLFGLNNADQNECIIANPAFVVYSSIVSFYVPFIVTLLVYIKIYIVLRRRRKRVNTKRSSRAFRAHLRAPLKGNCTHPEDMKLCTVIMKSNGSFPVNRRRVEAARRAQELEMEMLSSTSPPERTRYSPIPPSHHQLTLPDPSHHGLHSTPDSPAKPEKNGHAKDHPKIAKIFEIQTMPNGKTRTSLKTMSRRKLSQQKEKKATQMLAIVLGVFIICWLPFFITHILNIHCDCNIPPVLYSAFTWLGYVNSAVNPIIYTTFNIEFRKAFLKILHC
smiles,measurement,setting,value
CNC(C)C(=O)c1ccc2c(c1)OCO2 (stereo not shown) [methylone],% Agonist Activity,"[1]; ADRB2, 1 uM",0%
same,% Antagonist Activity,"[1]; ADRB2, 1 uM",18.1%
same,% Agonist Activity,"[1]; ADRB2, 10 uM",-0.2%
same,% Antagonist Activity,"[1]; ADRB2, 10 uM",20.4%
same,% Agonist Activity,[2]; 1 uM,0.1%
same,% Antagonist Activity,[2]; 1 uM,1.1%
same,% Agonist Activity,[2]; 10 uM,-0.7%
same,% Antagonist Activity,[2]; 10 uM,0.1%
same,% Agonist Activity,[3]; 1 uM,-3.5%
same,% Antagonist Activity,[3]; 1 uM,7.6%
same,% Agonist Activity,[3]; 10 uM,0.2%
same,% Antagonist Activity,[3]; 10 uM,13.2%
same,% Agonist Activity,"[4]; CALCR, 1 uM",-0.3%
same,% Antagonist Activity,"[4]; CALCR, 1 uM",5.4%
same,% Agonist Activity,"[4]; CALCR, 10 uM",-0.2%
same,% Antagonist Activity,"[4]; CALCR, 10 uM",-4.4%
same,% Agonist Activity,"[4]; CALCR-RAMP2, 1 uM",0.9%
same,% Antagonist Activity,"[4]; CALCR-RAMP2, 1 uM",-10.6%
same,% Agonist Activity,"[4]; CALCR-RAMP2, 10 uM",1.6%
same,% Antagonist Activity,"[4]; CALCR-RAMP2, 10 uM",-19.6%
same,% Agonist Activity,"[4]; CALCR-RAMP3, 1 uM",7.9%
same,% Antagonist Activity,"[4]; CALCR-RAMP3, 1 uM",-8.9%
same,% Agonist Activity,"[4]; CALCR-RAMP3, 10 uM",7.1%
same,% Antagonist Activity,"[4]; CALCR-RAMP3, 10 uM",-3.3%
same,% Agonist Activity,[5]; Conc 1 uM,-4.7%
same,% Antagonist Activity,[5]; Conc 1 uM,-0.7%
same,% Agonist Activity,[5]; Conc 10 uM,-3.5%
same,% Antagonist Activity,[5]; Conc 10 uM,-1.7%
same,% Agonist Activity,[6]; 1 uM,-1.4%
same,% Antagonist Activity,[6]; 1 uM,-5.2%
same,% Agonist Activity,[6]; 10 uM,-1.1%
same,% Antagonist Activity,[6]; 10 uM,-14%
same,% Agonist Activity,"[7]; GPR92, 1 uM",-1.6%
same,% Antagonist Activity,"[7]; GPR92, 1 uM",-8%
same,% Agonist Activity,"[7]; GPR92, 10 uM",-3.5%
same,% Antagonist Activity,"[7]; GPR92, 10 uM",5.8%
same,% Agonist Activity,"[8]; EDG7, 1 uM",3%
same,% Antagonist Activity,"[8]; EDG7, 1 uM",19.5%
same,% Agonist Activity,"[8]; EDG7, 10 uM",1.1%
same,% Antagonist Activity,"[8]; EDG7, 10 uM",17.9%
same,% Agonist Activity,"[9]; CRTH2, 1 uM",-5.7%
same,% Antagonist Activity,"[9]; CRTH2, 1 uM",9%
same,% Agonist Activity,"[9]; CRTH2, 10 uM",-5%
same,% Antagonist Activity,"[9]; CRTH2, 10 uM",8.9%
"CNC(C)Cc1ccc2c(c1)OCO2 (stereo not shown) [MDMA, 3,4-Methylenedioxy methamphetamine, reference compound]",% Agonist Activity,"[1]; ADRB2, 1 uM",2%
same,% Antagonist Activity,"[1]; ADRB2, 1 uM",31.9%
same,% Agonist Activity,"[1]; ADRB2, 10 uM",1.5%
same,% Antagonist Activity,"[1]; ADRB2, 10 uM",45.7%
same,% Agonist Activity,[2]; 1 uM,3.3%
same,% Antagonist Activity,[2]; 1 uM,4.8%
same,% Agonist Activity,[2]; 10 uM,2.6%
same,% Antagonist Activity,[2]; 10 uM,11.7%
same,% Agonist Activity,[3]; 1 uM,1.9%
same,% Antagonist Activity,[3]; 1 uM,18%
same,% Agonist Activity,[3]; 10 uM,1.1%
same,% Antagonist Activity,[3]; 10 uM,12.7%
same,% Agonist Activity,"[4]; CALCR, 1 uM",-3.5%
same,% Antagonist Activity,"[4]; CALCR, 1 uM",-8.1%
same,% Agonist Activity,"[4]; CALCR, 10 uM",-2.4%
same,% Antagonist Activity,"[4]; CALCR, 10 uM",6.8%
same,% Agonist Activity,"[4]; CALCR-RAMP2, 1 uM",-0.3%
same,% Antagonist Activity,"[4]; CALCR-RAMP2, 1 uM",12.8%
same,% Agonist Activity,"[4]; CALCR-RAMP2, 10 uM",2.9%
same,% Antagonist Activity,"[4]; CALCR-RAMP2, 10 uM",15.7%
same,% Agonist Activity,"[4]; CALCR-RAMP3, 1 uM",-18.3%
same,% Antagonist Activity,"[4]; CALCR-RAMP3, 1 uM",-3.6%
same,% Agonist Activity,"[4]; CALCR-RAMP3, 10 uM",-1.4%
same,% Antagonist Activity,"[4]; CALCR-RAMP3, 10 uM",-1.3%
same,% Agonist Activity,[5]; Conc 1 uM,-0.8%
same,% Antagonist Activity,[5]; Conc 1 uM,8.7%
same,% Agonist Activity,[5]; Conc 10 uM,1.2%
same,% Antagonist Activity,[5]; Conc 10 uM,0.5%
same,% Agonist Activity,[6]; 1 uM,2.3%
same,% Antagonist Activity,[6]; 1 uM,-14.5%
same,% Agonist Activity,[6]; 10 uM,0.7%
same,% Antagonist Activity,[6]; 10 uM,-11.7%
same,% Agonist Activity,"[7]; GPR92, 1 uM",-4%
same,% Antagonist Activity,"[7]; GPR92, 1 uM",6.8%
same,% Agonist Activity,"[7]; GPR92, 10 uM",-2.2%
same,% Antagonist Activity,"[7]; GPR92, 10 uM",8%
same,% Agonist Activity,"[8]; EDG7, 1 uM",-2.8%
same,% Antagonist Activity,"[8]; EDG7, 1 uM",-7%
same,% Agonist Activity,"[8]; EDG7, 10 uM",-2.4%
same,% Antagonist Activity,"[8]; EDG7, 10 uM",0.8%
same,% Agonist Activity,"[9]; CRTH2, 1 uM",-4.1%
same,% Antagonist Activity,"[9]; CRTH2, 1 uM",19.8%
same,% Agonist Activity,"[9]; CRTH2, 10 uM",-3%
same,% Antagonist Activity,"[9]; CRTH2, 10 uM",17.2%
